Experimental findings from ChEMBL document CHEMBL2429788, “Chiral linkers to improve selectivity of double-headed neuronal nitric oxide synthase inhibitors” (Bioorg Med Chem Lett, 2013) are described below.

The target in test [1] is T1, Nitric oxide synthase, inducible (Mus musculus, UniProt P29477).
T1 sequence (P29477 whole entry): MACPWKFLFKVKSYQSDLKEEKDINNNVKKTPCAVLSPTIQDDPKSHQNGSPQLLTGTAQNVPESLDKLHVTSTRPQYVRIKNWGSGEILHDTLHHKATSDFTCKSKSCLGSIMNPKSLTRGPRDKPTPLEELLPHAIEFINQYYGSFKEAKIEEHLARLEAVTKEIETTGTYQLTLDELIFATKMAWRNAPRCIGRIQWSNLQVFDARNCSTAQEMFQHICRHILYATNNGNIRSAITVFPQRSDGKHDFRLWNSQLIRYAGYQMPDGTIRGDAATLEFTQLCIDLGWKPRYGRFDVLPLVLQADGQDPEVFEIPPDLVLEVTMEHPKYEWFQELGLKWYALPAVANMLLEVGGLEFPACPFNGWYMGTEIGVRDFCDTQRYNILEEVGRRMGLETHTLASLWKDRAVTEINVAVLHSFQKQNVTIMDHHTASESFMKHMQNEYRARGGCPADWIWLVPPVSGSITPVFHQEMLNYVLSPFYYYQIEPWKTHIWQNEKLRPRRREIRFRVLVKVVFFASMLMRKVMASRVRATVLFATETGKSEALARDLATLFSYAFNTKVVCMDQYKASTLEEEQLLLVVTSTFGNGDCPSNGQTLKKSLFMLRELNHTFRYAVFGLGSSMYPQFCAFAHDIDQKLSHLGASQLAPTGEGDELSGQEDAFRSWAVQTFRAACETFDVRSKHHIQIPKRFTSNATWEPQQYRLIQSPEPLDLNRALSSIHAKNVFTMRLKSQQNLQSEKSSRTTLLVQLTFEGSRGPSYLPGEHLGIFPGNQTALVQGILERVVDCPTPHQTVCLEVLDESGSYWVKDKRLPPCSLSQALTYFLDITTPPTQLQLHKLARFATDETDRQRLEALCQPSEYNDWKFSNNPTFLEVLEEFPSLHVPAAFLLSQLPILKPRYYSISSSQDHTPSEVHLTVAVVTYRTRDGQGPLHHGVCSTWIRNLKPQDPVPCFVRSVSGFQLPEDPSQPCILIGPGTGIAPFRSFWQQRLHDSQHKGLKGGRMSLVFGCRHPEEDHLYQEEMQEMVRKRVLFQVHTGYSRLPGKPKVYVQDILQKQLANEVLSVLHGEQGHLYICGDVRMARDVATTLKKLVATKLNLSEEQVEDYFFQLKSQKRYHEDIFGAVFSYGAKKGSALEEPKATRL
Description: Inhibition of mouse recombinant iNOS expressed in Escherichia coli using L-arginine as substrate up to 180 seconds by hemoglobin capture assay

Test [2] deals with T2, Nitric oxide synthase 3 (Bos taurus, UniProt P29473).
T2 sequence (P29473 whole entry): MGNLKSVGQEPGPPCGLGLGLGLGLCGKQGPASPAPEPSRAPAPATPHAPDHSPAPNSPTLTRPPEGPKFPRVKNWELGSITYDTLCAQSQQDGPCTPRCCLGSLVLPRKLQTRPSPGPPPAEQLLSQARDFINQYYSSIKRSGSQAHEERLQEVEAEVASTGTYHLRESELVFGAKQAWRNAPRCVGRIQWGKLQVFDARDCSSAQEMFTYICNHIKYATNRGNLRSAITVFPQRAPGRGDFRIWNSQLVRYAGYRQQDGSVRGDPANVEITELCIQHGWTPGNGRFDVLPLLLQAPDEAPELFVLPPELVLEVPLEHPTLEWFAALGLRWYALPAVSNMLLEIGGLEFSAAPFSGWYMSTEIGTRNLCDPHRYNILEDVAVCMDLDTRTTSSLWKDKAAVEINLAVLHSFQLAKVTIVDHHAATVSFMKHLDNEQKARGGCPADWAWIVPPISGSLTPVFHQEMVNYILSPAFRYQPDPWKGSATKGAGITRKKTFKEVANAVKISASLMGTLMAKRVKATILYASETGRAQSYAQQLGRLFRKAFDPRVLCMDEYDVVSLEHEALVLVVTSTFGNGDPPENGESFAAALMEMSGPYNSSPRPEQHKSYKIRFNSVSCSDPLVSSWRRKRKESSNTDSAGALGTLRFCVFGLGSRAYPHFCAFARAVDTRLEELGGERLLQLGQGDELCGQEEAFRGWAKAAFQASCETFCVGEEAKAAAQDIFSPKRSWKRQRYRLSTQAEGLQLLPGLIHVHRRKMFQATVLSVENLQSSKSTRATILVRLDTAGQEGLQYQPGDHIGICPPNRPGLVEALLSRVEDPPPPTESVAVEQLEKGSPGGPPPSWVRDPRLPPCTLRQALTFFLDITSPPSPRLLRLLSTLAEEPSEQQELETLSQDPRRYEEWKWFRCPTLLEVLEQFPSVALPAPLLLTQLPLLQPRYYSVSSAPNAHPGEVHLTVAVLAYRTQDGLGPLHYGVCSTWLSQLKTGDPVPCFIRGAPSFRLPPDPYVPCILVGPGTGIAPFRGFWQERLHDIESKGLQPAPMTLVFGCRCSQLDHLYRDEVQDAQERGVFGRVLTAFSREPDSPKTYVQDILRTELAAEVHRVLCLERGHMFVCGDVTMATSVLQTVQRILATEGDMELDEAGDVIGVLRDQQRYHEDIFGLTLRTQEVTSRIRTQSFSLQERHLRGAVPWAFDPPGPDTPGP
Description: Inhibition of bovine recombinant eNOS expressed in Escherichia coli using L-arginine as substrate up to 180 seconds by hemoglobin capture assay

The term Ki denotes the dissociation constant of the complex between target and ligand, obtained from inhibition or displacement. The low end stands for higher affinity, the high end for lower affinity. For the molecule `Cc1cc(N)nc(COCCOCc2cc(C)cc(N)n2)c1`, the values for the Ki in test [1] and in test [2] were 2.93 µM and 5.26 µM, respectively.
